Source: patent US9328083B2, “2-aminated methylene or 2-esterified methylene tanshinone derivatives, and preparation method and application thereof” (HANGZHOU BENSHENG PHARMACEUTICAL CO., LTD., priority 2011, dated 2016)
Values after ≈ are worked out from the molar mass of the structure shown.

How the values were obtained:
[1] = test system: K562/adr (drug-resistant, chronic myeloid leukemia, CML); experiment: MTT growth inhibition of leukemia cells, 72 h; type: cell-based, human; conditions: Homo sapiens, K562/Adr; for IC50: read-out: IC50; for IC90: read-out: IC90
From the text: (§1) Leukemia cell lines: leukemia cell lines: K562/adr (drug-resistant, chronic myeloid leukemia, CML), NB4 (acute promyelocytic leukemia, AML), Kasumi-1 (acute myeloid leukemia M2 type, AML-M2), and Jurkat (acute lymphoblastic leukemia, ALL), all of which are donated by Cancer Research Institute of Zhejiang University, China; and H9 (acute lymphoblastic leukemia, ALL), which is purchased from China Center for Type Culture Collection (CCTCC).
(§2) The standard sample of tanshinone I (TA) and the 2-aminated methylene or 2-esterified methylene tanshinone I derivatives of the present invention are sufficiently dissolved with dimethylsulfoxide to produce a stock solution of 10 mg/mL, which is refrigerated at 4° C. and stored in dark, and is diluted with a cell culture medium to the desired concentration prior to experimentation.
(§3) Obtaining 6000 well-growing leukemia cells and inoculating them into wells of a 96-well cell culture plate. The culture medium is the RPMI-1640 cell culture medium containing 10% fetal bovine serum. After adding on the second day the 2-aminated methylene or 2-esterified methylene tanshinone I derivatives of different concentrations and mixing uniformly, placing the plate in a carbon dioxide cell incubator (5% CO2) at 37° C. and incubated for 72 hours. Then the viable cell concentration is determined by MTT method.

[2] = test system: H9 (acute lymphoblastic leukemia, ALL); experiment: MTT growth inhibition of leukemia cells, 72 h; type: cell-based, human; conditions: Homo sapiens, H9, 72 h; for IC50: read-out: IC50; for IC90: read-out: IC90
From the text: as §1, §2, §3

[3] = test system: Jurkat (acute lymphoblastic leukemia, ALL); experiment: MTT growth inhibition of leukemia cells, 72 h; type: cell-based, human; conditions: Homo sapiens, 72 h; for IC50: read-out: IC50; for IC90: read-out: IC90
From the text: as §1, §2, §3

[4] = test system: NB4 (acute promyelocytic leukemia, AML); experiment: MTT growth inhibition of leukemia cells, 72 h; type: cell-based, human; conditions: Homo sapiens, NB4, 72 h; for IC50: read-out: IC50; for IC90: read-out: IC90
From the text: as §1, §2, §3

[5] = test system: Kasumi-1 (acute myeloid leukemia M2 type, AML-M2); experiment: MTT growth inhibition of leukemia cells, 72 h; type: cell-based, human; conditions: Homo sapiens, Kasumi-1, 72 h; for IC50: read-out: IC50; for IC90: read-out: IC90
From the text: as §1, §2, §3

[6] = test system: RPMI8226 (multiple myeloma); experiment: MTT growth inhibition of multiple myeloma cells, 72 h; type: cell-based, human; conditions: Homo sapiens, RPMI 8226, 72 h; for IC50: read-out: IC50; for IC90: read-out: IC90
Procedure: Myeloma cell lines: RPMI8226 (multiple myeloma), purchased from Fuxiang Bio-tech Co. Ltd., Shanghai, China.
as §2
as §3, with “myeloma” for “leukemia”, “cells as above” for “cells”, “1640” for “RPMI-1640”, “adding” for “adding on the second day”

[7] = test system: Becap37 (human breast cancer cell); experiment: MTT growth inhibition of human solid tumor cells, 72 h; type: cell-based; conditions: Homo sapiens, Becap-37, 72 h; for IC50: read-out: IC50; for IC90: read-out: IC90
Procedure: (§4) Hep-2 (laryngeal carcinoma), A549 (human lung cancer), CaES-17 (esophageal cancer cell), PC-3 (prostate cancer), CNE (nasopharyngeal carcinoma cell), and SK-OV-3 (ovarian cancer cell), all of which are purchased from China Center For Type Culture Collection; RKO (human colon adenocarcinoma cell), MGC 803 (human gastric cancer cell), MG63 (osteosarcoma) and U87 MG (malignant glioma cell), all of which are purchased from Fuxiang Bio-tech Co. Ltd., Shanghai, China; PANC-1 (pancreatic cancer), Hep G2 (human liver cancer cell), Becap37 (human breast cancer cell) and Hela (human cervical cancer cell), all of which are donated by Cancer Research Institute of Zhejiang University, China.
as §2
(§5) Obtaining 4000 well-growing human solid tumor cells and inoculating them into wells of a 96-well cell culture plate. The culture medium is DMEM High Glucose cell culture medium containing 10% fetal bovine serum. The plate is placed in a carbon dioxide cell incubator (5% CO2) at 37° C. and incubated for 24 hours. After adding the 2-aminated methylene or 2-esterified methylene tanshinone I derivatives of different concentrations and mixing uniformly, the plate is placed in a carbon dioxide cell incubator (5% CO2) at 37° C. and incubated for 72 hours. Then the viable cell concentration is determined by the MTT method.

[8] = test system: Hela (human cervical cancer cell); experiment: as above; type: cell-based; conditions: Homo sapiens, HeLa, 72 h; for IC50: read-out: IC50; for IC90: read-out: IC90
Procedure: as §4, §2, §5

A549 (human lung cancer) = experiment: as above; type: cell-based; conditions: Homo sapiens, A549, 72 h; for IC50: read-out: IC50; for IC90: read-out: IC90
Procedure: as §4, §2, §5

PC-3 (prostate cancer) = experiment: as above; type: cell-based; conditions: Homo sapiens, PC-3, 72 h; for IC50: read-out: IC50; for IC90: read-out: IC90
Procedure: as §4, §2, §5

[9] = test system: SK-OV-3 (ovarian cancer cell); experiment: as above; type: cell-based; conditions: Homo sapiens, SK-OV-3, 72 h; for IC50: read-out: IC50; for IC90: read-out: IC90
Procedure: as §4, §2, §5

[10] = test system: MGC 803 (human gastric cancer cell); experiment: as above; type: cell-based; conditions: Homo sapiens, MGC-803, 72 h; for IC50: read-out: IC50; for IC90: read-out: IC90
Procedure: as §4, §2, §5

[11] = test system: U87 MG (malignant glioma cell); experiment: as above; type: cell-based; conditions: Homo sapiens, U-87 MG, U87-MG, 72 h; for IC50: read-out: IC50; for IC90: read-out: IC90
Procedure: as §4, §2, §5

[12] = test system: Hep-2 (laryngeal carcinoma); experiment: as above; type: cell-based; conditions: Homo sapiens, HEp-2, 72 h; for IC50: read-out: IC50; for IC90: read-out: IC90
Procedure: as §4, §2, §5

MG63 (osteosarcoma) = experiment: as above; type: cell-based; conditions: Homo sapiens, MG-63, 72 h; for IC50: read-out: IC50; for IC90: read-out: IC90
Procedure: as §4, §2, §5

[13] = test system: PANC-1 (pancreatic cancer); experiment: as above; type: cell-based; conditions: Homo sapiens, PANC-1, 72 h; for IC50: read-out: IC50; for IC90: read-out: IC90
Procedure: as §4, §2, §5

[14] = test system: RKO (human colon adenocarcinoma cell); experiment: as above; type: cell-based; conditions: Homo sapiens; for IC50: read-out: IC50; for IC90: read-out: IC90
Procedure: as §4, §2, §5

[15] = test system: Hep G2 (human liver cancer cell); experiment: as above; type: cell-based; conditions: Homo sapiens, HepG2, Hep G2, 72 h; for IC50: read-out: IC50; for IC90: read-out: IC90
Procedure: as §4, §2, §5

[16] = test system: CaES-17 (esophageal cancer cell); experiment: as above; type: cell-based; conditions: Homo sapiens, CaEs17, CaEs-17, 72 h; for IC50: read-out: IC50; for IC90: read-out: IC90
Procedure: as §4, §2, §5

[17] = test system: CNE (nasopharyngeal carcinoma cell); experiment: as above; type: cell-based; conditions: Homo sapiens; for IC50: read-out: IC50; for IC90: read-out: IC90
Procedure: as §4, §2, §5

Structure (SMILES) | IC50 [1] [µg/mL] | IC90 [1] [µg/mL] | IC50 [2] [µg/mL] | IC90 [2] [µg/mL] | IC50 [3] [µg/mL] | IC90 [3] [µg/mL] | IC50 [4] [µg/mL] | IC90 [4] [µg/mL] | IC50 [5] [µg/mL] | IC90 [5] [µg/mL] | IC50 [6] [µg/mL] | IC90 [6] [µg/mL] | IC50 [7] [µg/mL] | IC90 [7] [µg/mL] | IC50 [8] [µg/mL] | IC90 [8] [µg/mL] | IC50 (A549 (human lung cancer)) [µg/mL] | IC90 (A549 (human lung cancer)) [µg/mL] | IC50 (PC-3 (prostate cancer)) [µg/mL] | IC90 (PC-3 (prostate cancer)) [µg/mL] | also measured
Cc1c(CN(C)CCOC(=O)CNC(=O)OC(C)(C)C)oc2c1C(=O)C(=O)c1c-2ccc2c(C)cccc12 [BS-TA-72] | 1.5 (≈ 2.88 µM) | 2 (≈ 3.84 µM) | 0.45 (≈ 0.864 µM) | 1.6 (≈ 3.07 µM) | 0.31 (≈ 0.595 µM) | 0.99 (≈ 1.9 µM) | 0.35 (≈ 0.672 µM) | 0.71 (≈ 1.36 µM) | 0.28 (≈ 0.538 µM) | 0.47 (≈ 0.903 µM) | 0.12 (≈ 0.231 µM) | 0.87 (≈ 1.67 µM) | 1.02 (≈ 1.96 µM) | 1.94 (≈ 3.73 µM) | 0.89 (≈ 1.71 µM) | 1.84 (≈ 3.53 µM) | 1.07 (≈ 2.06 µM) | 3.7 (≈ 7.11 µM) | 1.68 (≈ 3.23 µM) | 9.92 (≈ 19.1 µM) | IC50 [9]: 5.91 µg/mL (≈ 11.4 µM); IC90 [9]: 10.9 µg/mL (≈ 21 µM); IC50 [10]: 1.5 µg/mL (≈ 2.88 µM); IC90 [10]: 9.94 µg/mL (≈ 19.1 µM); IC50 [11]: 1.46 µg/mL (≈ 2.8 µM); IC90 [11]: 3.65 µg/mL (≈ 7.01 µM); IC50 [12]: 1.59 µg/mL (≈ 3.05 µM); IC90 [12]: 3.77 µg/mL (≈ 7.24 µM); IC50 (MG63 (osteosarcoma)): 1.08 µg/mL (≈ 2.07 µM); IC90 (MG63 (osteosarcoma)): 2.56 µg/mL (≈ 4.92 µM); IC50 [13]: 0.75 µg/mL (≈ 1.44 µM); IC90 [13]: 8.96 µg/mL (≈ 17.2 µM); IC50 [14]: 0.25 µg/mL (≈ 0.48 µM); IC90 [14]: 2.38 µg/mL (≈ 4.57 µM); IC50 [15]: 0.71 µg/mL (≈ 1.36 µM); IC90 [15]: 3.85 µg/mL (≈ 7.4 µM); IC50 [16]: 1.84 µg/mL (≈ 3.53 µM); IC90 [16]: 3.98 µg/mL (≈ 7.65 µM); IC50 [17]: 2.02 µg/mL (≈ 3.88 µM); IC90 [17]: 3.61 µg/mL (≈ 6.93 µM)
Cc1c(CN(C)CCOC(=O)C2CCNCC2)oc2c1C(=O)C(=O)c1c-2ccc2c(C)cccc12 [BS-TA-64] | 0.84 (≈ 1.77 µM) | 2.82 (≈ 5.94 µM) | 0.59 (≈ 1.24 µM) | 1.63 (≈ 3.43 µM) | 0.54 (≈ 1.14 µM) | 1.92 (≈ 4.05 µM) | 0.25 (≈ 0.527 µM) | 0.87 (≈ 1.83 µM) | 0.33 (≈ 0.695 µM) | 0.7 (≈ 1.48 µM) | 0.4 (≈ 0.843 µM) | 0.92 (≈ 1.94 µM) | 0.77 (≈ 1.62 µM) | 1.67 (≈ 3.52 µM) | 2.16 (≈ 4.55 µM) | 3.9 (≈ 8.22 µM) | 1.4 (≈ 2.95 µM) | 4.46 (≈ 9.4 µM) | 1.8 (≈ 3.79 µM) | 4.15 (≈ 8.74 µM) | IC50 [9]: 3.55 µg/mL (≈ 7.48 µM); IC90 [9]: 7.76 µg/mL (≈ 16.4 µM); IC50 [10]: 0.85 µg/mL (≈ 1.79 µM); IC90 [10]: 3.24 µg/mL (≈ 6.83 µM); IC50 [11]: 1.16 µg/mL (≈ 2.44 µM); IC90 [11]: 3.72 µg/mL (≈ 7.84 µM); IC50 [12]: 1.67 µg/mL (≈ 3.52 µM); IC90 [12]: 3.65 µg/mL (≈ 7.69 µM); IC50 (MG63 (osteosarcoma)): 0.82 µg/mL (≈ 1.73 µM); IC90 (MG63 (osteosarcoma)): 2.16 µg/mL (≈ 4.55 µM); IC50 [13]: 0.71 µg/mL (≈ 1.5 µM); IC90 [13]: 5.07 µg/mL (≈ 10.7 µM); IC50 [14]: 0.29 µg/mL (≈ 0.611 µM); IC90 [14]: 5.56 µg/mL (≈ 11.7 µM); IC50 [15]: 1.31 µg/mL (≈ 2.76 µM); IC90 [15]: 3.66 µg/mL (≈ 7.71 µM); IC50 [16]: 0.88 µg/mL (≈ 1.85 µM); IC90 [16]: 1.85 µg/mL (≈ 3.9 µM); IC50 [17]: 1.8 µg/mL (≈ 3.79 µM); IC90 [17]: 3.8 µg/mL (≈ 8.01 µM)
